Activity calls are given as the source filed them. No cut-off for these calls is given here.
How the values were obtained:
Microbotryum violaceum = assay: Antifungal activity against Microbotryum violaceum at 0.05 mg by agar diffusion method; type: functional; settings: for zone of inhibition at 50 µg/disc: read-out: DIZ
MG-63 = assay: Growth inhibition of human MG63 cells by MTT assay; type: functional, cell-based
Priestia megaterium = assay: Antibacterial activity against Bacillus megaterium at 0.05 mg by agar diffusion method; type: functional; settings: for zone of inhibition at 50 µg/disc: read-out: DIZ
Escherichia coli = assay: Antibacterial activity against Escherichia coli at 0.05 mg by agar diffusion method; type: functional; settings: for zone of inhibition at 50 µg/disc: read-out: DIZ
A549 = assay: Growth inhibition of human A549 cells by MTT assay; type: functional, cell-based
Zymoseptoria tritici = assay: Antifungal activity against Septoria tritici at 0.05 mg by agar diffusion method; type: functional; settings: for zone of inhibition at 50 µg/disc: read-out: DIZ

SMILES	diameter of the inhibition zone (DIZ) (Microbotryum violaceum)	IC50 (MG-63) [µM]	diameter of the inhibition zone (DIZ) (Priestia megaterium)	diameter of the inhibition zone (DIZ) (Escherichia coli)	IC50 (A549) [µM]	diameter of the inhibition zone (DIZ) (Zymoseptoria tritici)	zone of inhibition at 50 µg/disc (Microbotryum violaceum) [mm]	zone of inhibition at 50 µg/disc (Priestia megaterium) [mm]	zone of inhibition at 50 µg/disc (Escherichia coli) [mm]	zone of inhibition at 50 µg/disc (Zymoseptoria tritici) [mm]
C=C1/C=C/[C@H](OC(C)=O)[C@@]2(C)[C@@H](OC(C)=O)[C@@H](OC(C)=O)[C@@H](OC(C)=O)[C@]3(CO3)[C@@H]2[C@H](OC(C)=O)[C@]2(O)[C@@H](C)C(=O)O[C@H]2[C@H]1Cl [GEMMACOLIDE G]	inactive	38.4	inactive	inactive	8.4	inactive	–	–	–	–
C=C1/C=C/[C@H](OC(C)=O)[C@@]2(C)[C@@H](OC(C)=O)C[C@@H](OC(=O)CC(C)C)[C@]3(CO3)[C@@H]2[C@H](OC(C)=O)[C@]2(O)[C@@H](C)C(=O)O[C@H]2[C@H]1Cl [GEMMACOLIDE I]	inactive	25	inactive	inactive	20.6	inactive	–	–	–	–
C=C1/C=C/[C@H](OC(C)=O)[C@@]2(C)[C@@H](OC(C)=O)[C@@H](OC(=O)CC(C)C)[C@@H](OC(C)=O)[C@]3(CO3)[C@@H]2[C@H](OC(C)=O)[C@]2(O)[C@@H](C)C(=O)O[C@H]2[C@H]1Cl	inactive	–	inactive	inactive	–	inactive	–	–	–	–
CN[C@@H]1[C@H](O[C@H]2[C@H](O[C@H]3[C@H](O)[C@@H](O)[C@H](N=C(N)N)[C@@H](O)[C@@H]3N=C(N)N)O[C@@H](C)[C@]2(O)C=O)O[C@@H](CO)[C@H](O)[C@H]1O [STREPTOMYCIN]	–	–	–	–	–	–	16	11	18	11
CC(=O)N1CCN(c2ccc(OCC3COC(Cn4ccnc4)(c4ccc(Cl)cc4Cl)O3)cc2)CC1 (stereo not drawn) [KETOCONAZOLE]	–	–	–	–	–	–	30	18	18	25
C=C1/C=C/[C@H](OC(C)=O)[C@@]2(C)[C@@H](OC(C)=O)[C@@H](OC(C)=O)[C@@H](OC(=O)CC(C)C)[C@]3(CO3)[C@@H]2[C@H](OC(C)=O)[C@]2(O)[C@@H](C)C(=O)O[C@H]2[C@H]1Cl [GEMMACOLIDE J]	–	79.8	–	–	< 1.4	–	–	16	–	–
CC1(C)S[C@@H]2[C@H](NC(=O)Cc3ccccc3)C(=O)N2[C@H]1C(=O)O [PENICILLIN G]	–	–	–	–	–	–	14	26	8	12
C=C1/C=C/[C@H](OC(C)=O)[C@@]2(C)[C@@H](OC(C)=O)CC[C@]3(CO3)[C@@H]2[C@H](OC(C)=O)[C@]2(O)[C@@H](C)C(=O)O[C@H]2[C@H]1Cl	inactive	–	inactive	inactive	–	inactive	–	–	–	–
COc1cccc2c1C(=O)c1c(O)c3c(c(O)c1C2=O)C[C@@](O)(C(=O)CO)C[C@@H]3O[C@H]1C[C@H](N)[C@H](O)[C@H](C)O1 [DOXORUBICIN]	–	2.8	–	–	2.8	–	–	–	–	–
C=C1/C=C/[C@H](OC(C)=O)[C@@]2(C)[C@@H](OC(C)=O)C[C@@H](OC(C)=O)[C@]3(CO3)[C@@H]2[C@H](OC(C)=O)[C@]2(O)[C@@H](C)C(=O)O[C@H]2[C@H]1Cl [GEMMACOLIDE H]	inactive	54	inactive	inactive	47.3	inactive	–	–	–	–
